# According to patent publication US8212010B2, “Sphingosine 1-phosphate antagonism” (Expression Drug Designs, LLC, priority 2008, dated 2012):
# Assays:
# [1] = system: tumor transplant model; settings: in vivo; cited from earlier work
# [2] = system: S1P receptor; settings: with the exception of S1P2; by stable internalization; cited from earlier work
# [3] = system: MCF-7 cells; test: Cell death by annexin V assay; assay type: cell-based, human
# Experimental: Quantification of cell death can be performed with an annexin V assay. Serum-starved cells can be treated overnight with […] tamoxifen in the presence or absence of 500 nM S1P, then collected by trypsinization, and labeled with Alexafluor 488-conjugated annexin V (Invitrogen Corp, Carlsbad, Calif.) per manufacturer's protocol. Cells can be counted on a FACSAria cell sorting system and analyzed with FACSDiva software (BD Biosciences, San Jose, Calif.). […] This effect is attenuated by co-administration of 500 nM S1P.
# [4] = system: MDA-MB-231 breast cancer cells; test: S1P-induced cytoskeletal rearrangement / cell rounding; assay type: cell-based, human
# Experimental: MDA-MB-231 breast cancer cells are cultured on collagen-coated coverslips in the presence of 10% FBS using standard techniques. Because S1P is present at high concentrations in serum, BCCs are “serum-starved” in Dulbecco's modified Eagle medium (DMEM) for 12 hours prior to experimental manipulation. S1P is solubilized with bovine serum albumin (BSA) carrier and administered at a final concentration of 1 nM to 1 μM. Coverslips are collected at representative time points such as 10 minutes, 1 hr., 2 hrs., 4 hrs., and 6 hrs., fixed with 4% paraformaldehyde, and stained with rhodamine-conjugated phalloidin to label cytoskeletal actin.
# The cell rounding experiment can be performed using an antagonist of S1P that binds to S1P3. […] Serum-starved MDA-MB-231 cells are incubated with preimmune serum or S1P3-reactive antiserum for 15 minutes prior to a 30-minute exposure to 10 nM S1P, then evaluated for response both in % cells responding and average cell area.
# MDA-MB-231 cells are grown under standard culture conditions and serum starved for 24 hours prior to experimental manipulation. […] 30 minutes after S1P administration, cells are fixed with 4% paraformaldehyde, stained with rhodamine-conjugated phalloidin, and visualized with fluorescence microscopy. Rounded cells are counted by an experimenter blinded to the identity of the sample. Cell area is determined by quantification with imageJ software.
# [5] = system: MDA-MB-231 cells; test: Tamoxifen toxicity, cell viability by phase contrast microscopy; assay type: cell-based, human
# Experimental: The experiment can be performed first without a S1P antagonist. MDA-MB-231 cells are cultured under standard conditions in […] supplemented with 10% fetal bovine serum and glutamate. Cells are grown in the absence of serum for 24 hours prior to experimental manipulation. Tamoxifen (Tam) and S1P are added to the media at the indicated concentrations for the indicated times at the appropriate concentrations (e.g., 3 μM Tam, 10 μM Tam, and 20 μM Tam) for appropriate times (e.g., 6 hrs. and 24 hrs.). Cell viability is observed by direct illumination with an inverted phase contrast microscope.
# The tamoxifen toxicity experiment can be performed using an antagonist of S1P that binds to S1P3. For example, the antiserum described in Example 1 can be employed. MDA-MB-231 cells are cultured under standard conditions in Dulbecco's Minimal Essential Media supplemented with 10% fetal bovine serum and glutamate. Serum concentration is reduced to 1% for 24 hours prior to experimental manipulation. Tamoxifen and S1P are added to the media at the appropriate concentrations (e.g., 0 μM Tam, 10 μM Tam, and 20 μM Tam) for appropriate times (e.g., 6 hrs. and 24 hrs.). Cell viability is observed by direct illumination with an inverted phase contrast microscope.
# [6] = system: MDA-MB-231 cells; test: Cell motility, modified Boyden's chamber assay; assay type: cell-based, human; settings: 1 μM S1P; two hour time point
# Experimental: Cell motility is determined using a modified Boyden's chamber assay. MDA-MB-231 cells are introduced into the upper wells of collagen-coated chambers in serum-free DMEM and incubated for 30 minutes before the addition of either 1 μM S1P in BSA or BSA alone. At the indicated times, wells are isolated and fixed with 4% paraformaldehyde before non-migrated cells in the upper well are removed with a cotton swab. Membranes are then stained with DAPI to visualize individual migrated cells on the bottom of the membranes. Results shown are the averages of three independent experiments. Determination of the effect of S1P3 blocking antibodies on the migration of cancer cells can be performed as follows. The effect of S1P3 blocking antibodies is determined using a modified Boyden chamber assay as described above. In this case, an appropriate cell line (such as […]) is seeded into the upper chamber of the transwell and pre-treated with a blocking antibody or control antibody. […] Cells are then fixed and counted as described above. The anti-migratory effect of the blocking antibody is determined by comparing the number of migrated cells in the presence of the antibody to the number of migrated cells in the presence of an appropriate control antibody under the same stimulatory conditions.
smiles,measurement,setting,value
CCCCCCCCc1ccc(CCC(N)(CO)CO)cc1 [FTY720],effect on angiogenesis and tumor growth,[1],inhibit angiogenesis and subsequent growth
same,inhibition of S1P receptors,[2],effectively inhibit four of the five known receptors
"CCCCCCCCCCCCC/C=C/[C@@H](O)[C@@H](N)COP(=O)(O)O [S1P, Sphingosine 1-phosphate]",effect on tamoxifen-induced annexin V binding,[3]; co-administration of 500 nM S1P,attenuated
same,cell shape change,[4]; 1 nM S1P,minor cell shape changes
same,cell shape change,[4]; 10 nM S1P,dramatic cell rounding
same,cell viability under tamoxifen with S1P,"[5]; serum-free, 6 hours, media supplemented with 1 μM S1P",many viable cells remain
same,cell viability under tamoxifen with S1P,"[5]; serum-free, 24 hour, addition of S1P",markedly improves survival
same,increase in migrated cells compared to vehicle control,[6],nearly two-fold increase
CC/C(=C(\c1ccccc1)c1ccc(OCCN(C)C)cc1)c1ccccc1 [Tamoxifen],annexin V binding (apoptotic cell death),[3]; overnight treatment of MCF-7 cells,increase in annexin V binding
same,cell viability,"[5]; 1% FBS, 6 hours, 10 μM Tam",appear normal
same,cell viability,"[5]; 1% FBS, 6 hours, 20 μM Tam",begin to show evidence of cell death
same,cell viability,"[5]; 24 hours, 10 μM Tam, control conditions",most cells remain healthy
same,cell viability,"[5]; serum-free, 6 hours, 10 μM tamoxifen",only a few viable cells remain
same,cell viability,"[5]; serum-free, 6 hours, 20 μM tamoxifen",all cells are dead/dying
same,cell viability,"[5]; serum-free, 24 hour, 3 μM tamoxifen",most control cells are lost
same,cell viability,"[5]; serum-free, 24 hour, 10 μM tamoxifen",cell death is complete
